Experimental data: paper PMC2359919, “Molecular targeting of retinoic acid metabolism in neuroblastoma: the role of the CYP26 inhibitor R116010 in vitro and in vivo” (British Journal of Cancer, 2007)
Like-named read-outs stand apart in the source and are kept apart here.

Test: Pharmacokinetic analysis of RA in an SH-SY5Y xenograft model (retinoid concentrations in plasma, liver, tumour by LC/MS)
Format: in vivo, CD-1 nude mice
Conditions: for % Total retinoids, tumour, 0.5 h / % Total retinoids, tumour, 2 h / % Total retinoids, tumour, 6 h / % Total retinoids, liver, 0.5 h / % Total retinoids, liver, 2 h / % Total retinoids, liver, 6 h / % Total retinoids, plasma, 0.5 h / % Total retinoids, plasma, 2 h / % Total retinoids, plasma, 6 h / concentration at 0.5 h / concentration at 2 h / concentration at 6 h: label = retinoid measured; for concentration at 0.5 h / concentration at 2 h / concentration at 6 h / Tmax: female, CD-1 nu/nu (athymic nude), mouse; for concentration at 0.5 h / concentration at 2 h / concentration at 6 h: po; for Tmax: 100 mg kg^−1 oral, sampled at 0.5, 2, 6 h, read-out: Time of peak plasma levels
Method: All in vivo experiments were approved by the relevant institutional animal welfare committees, and performed according to national law. Female athymic nude mice (CD-1 nu/nu, Charles River) used for antitumour studies were maintained and handled in isolators, under specific pathogen-free conditions, at 24°C with a 12 h light, 12 h dark cycle. Tumours were generated by implantation of SH-SY5Y cells subcutaneously (s.c.) into one flank of CD-1 nude mice (1 × 10^7 cells per animal).
Treatments began when the tumours were between 7 and 10 mm in length and breadth. Retinoids and R116010 were initially dissolved in DMSO before 10- or 20-fold dilutions in PBS, respectively. For pharmacokinetic studies, the animals were dosed with ATRA or 13cisRA (each 100 mg kg^−1) orally for 0.5, 2 and 6 h. For metabolism studies, animals were treated with R116010 orally at doses of 1.25 or 2.5 mg kg^−1 either immediately before the retinoid being studied, or up to three times (over 1–2 days) before dosing with the retinoid. At termination of experiments, animals were bled under terminal anaesthesia then killed by cervical dislocation. Plasma was immediately removed from the blood by centrifugation at 1000 g for 5 min and snap-frozen in liquid nitrogen in amber Eppendorfs. Tumour and liver samples were removed and snap-frozen, wrapped in foil, in liquid nitrogen.
Cell pellets obtained from retinoid incubations were re-suspended in 2 ml cell culture medium and disrupted by passing the samples several times through a syringe and hypodermic needle (25G × 1 inches, 0.5 mm × 25 mm; Terumo, Somerset, NJ, USA). Tumour and liver tissues were re-suspended in PBS and homogenised (T25 homogeniser, IKA Laboratories, Staufen, Germany). Retinoids were extracted as described previously ([Veal et al, 2002]; [Armstrong et al, 2005b]). Samples were reconstituted in 200 μl mobile phase A (n-hexane:dichloromethane:propan-2-ol, 400 : 1 : 0.27) and analysed by normal-phase HPLC as described previously ([Veal et al, 2002]). For LC/MS analysis, samples were reconstituted in 200 μl mobile phase A (50% acetonitrile, 50% (0.2%) acetic acid, v v^−1).
Resolution of retinoids was performed with a Luna C18(2) column (3 μm, 50 mm × 2 mm) using a Perkin Elmer LC (Beaconsfield, UK) system, consisting of a vacuum degasser, two series 200 pumps, a thermostatically controlled series 200 autosampler and a Waters 2487 UV absorbance detector. Retinoic isomers and metabolites were separated by gradient reversed-phase chromatography. An injection volume of 20 μl with a flow rate of 0.2 ml min^−1 was used with mobile phase A (50% acetonitrile, 50% (0.2%) acetic acid, v v^−1) and mobile phase B (acetonitrile, 0.1% acetic acid, v v^−1). Linear gradients were employed between the specified times as follows: 0, 100% A; 5 min, 100% A; 15 min, 100% B; 20 min, 100% B; 23 min, 100% A; 35 min, 100% A. An Applied Biosystems (Warrington, UK) API-2000 LC/MS/MS triple Q (quadrupole) mass spectrometer with electrospray ionisation source, controlled by Analyst software, was operated in single quadrupole negative mode for the detection of compounds.

[1] = after 13cisRA 100 mg kg^−1 oral, SH-SY5Y tumour
[2] = after 13cisRA 100 mg kg^−1 oral, liver
[3] = after 13cisRA 100 mg kg^−1 oral, plasma
[4] = after ATRA 100 mg kg^−1 oral, SH-SY5Y tumour
[5] = after ATRA 100 mg kg^−1 oral, liver
[6] = after ATRA 100 mg kg^−1 oral, plasma
[7] = liver, 100 mg kg^−1, after 13cisRA 100 mg kg^−1 oral, liver, read-out: Liver concentration, 0.5 h
[8] = liver, 100 mg kg^−1, after 13cisRA 100 mg kg^−1 oral, liver, read-out: Liver concentration, 2 h
[9] = liver, 100 mg kg^−1, after 13cisRA 100 mg kg^−1 oral, liver, read-out: Liver concentration, 6 h
[10] = liver, 100 mg kg^−1, after ATRA 100 mg kg^−1 oral, liver, read-out: Liver concentration, 0.5 h
[11] = liver, 100 mg kg^−1, after ATRA 100 mg kg^−1 oral, liver, read-out: Liver concentration, 2 h
[12] = liver, 100 mg kg^−1, after ATRA 100 mg kg^−1 oral, liver, read-out: Liver concentration, 6 h
[13] = plasma, 100 mg kg^−1, after 13cisRA 100 mg kg^−1 oral, plasma, read-out: Plasma concentration, 0.5 h
[14] = plasma, 100 mg kg^−1, after 13cisRA 100 mg kg^−1 oral, plasma, read-out: Plasma concentration, 2 h
[15] = plasma, 100 mg kg^−1, after 13cisRA 100 mg kg^−1 oral, plasma, read-out: Plasma concentration, 6 h
[16] = plasma, 100 mg kg^−1, after ATRA 100 mg kg^−1 oral, plasma, read-out: Plasma concentration, 0.5 h
[17] = plasma, 100 mg kg^−1, after ATRA 100 mg kg^−1 oral, plasma, read-out: Plasma concentration, 2 h
[18] = plasma, 100 mg kg^−1, after ATRA 100 mg kg^−1 oral, plasma, read-out: Plasma concentration, 6 h
[19] = tumour (SH-SY5Y xenograft), 100 mg kg^−1, after 13cisRA 100 mg kg^−1 oral, SH-SY5Y tumour, read-out: Tumour concentration, 0.5 h
[20] = tumour (SH-SY5Y xenograft), 100 mg kg^−1, after 13cisRA 100 mg kg^−1 oral, SH-SY5Y tumour, read-out: Tumour concentration, 2 h
[21] = tumour (SH-SY5Y xenograft), 100 mg kg^−1, after 13cisRA 100 mg kg^−1 oral, SH-SY5Y tumour, read-out: Tumour concentration, 6 h
[22] = tumour (SH-SY5Y xenograft), 100 mg kg^−1, after ATRA 100 mg kg^−1 oral, SH-SY5Y tumour, read-out: Tumour concentration, 0.5 h
[23] = tumour (SH-SY5Y xenograft), 100 mg kg^−1, after ATRA 100 mg kg^−1 oral, SH-SY5Y tumour, read-out: Tumour concentration, 2 h
[24] = tumour (SH-SY5Y xenograft), 100 mg kg^−1, after ATRA 100 mg kg^−1 oral, SH-SY5Y tumour, read-out: Tumour concentration, 6 h

CC1=C(/C=C/C(C)=C/C=C/C(C)=C/C(=O)O)C(C)(C)CCC1 [ATRA, all-trans-retinoic acid]
Plasma % of total retinoids at all time points (after 13cisRA 100 mg kg^−1, plasma, 0.5, 2 and 6 h): < 10%
% Total retinoids, tumour, 0.5 h [1]: 7%
% Total retinoids, tumour, 2 h [1]: 14%
% Total retinoids, tumour, 6 h [1]: 16%
% Total retinoids, liver, 0.5 h [2]: 2%
% Total retinoids, liver, 2 h [2]: 1%
% Total retinoids, liver, 6 h [2]: <1%
% Total retinoids, plasma, 0.5 h [3]: 5%
% Total retinoids, plasma, 2 h [3]: 3%
% Total retinoids, plasma, 6 h [3]: 1%
Intratumoral % of total retinoids at all time points (after ATRA 100 mg kg^−1, tumour, 0.5, 2 and 6 h): ≥ 80%
% Total retinoids, tumour, 0.5 h [4]: 90%
% Total retinoids, tumour, 2 h [4]: 95%
% Total retinoids, tumour, 6 h [4]: 80%
% Total retinoids, liver, 0.5 h [5]: 77%
% Total retinoids, liver, 2 h [5]: 81%
% Total retinoids, liver, 6 h [5]: 46%
% Total retinoids, plasma, 0.5 h [6]: 91%
% Total retinoids, plasma, 2 h [6]: 88%
% Total retinoids, plasma, 6 h [6]: 70%
concentration at 0.5 h [7]: 120 ± 80 ng/g
concentration at 2 h [8]: 50 ± 50 ng/g
concentration at 6 h [9]: 20 ± 20 ng/g
concentration at 0.5 h [10]: 3070 ± 1950 ng/g
concentration at 2 h [11]: 6920 ± 1130 ng/g
concentration at 6 h [12]: 2400 ± 360 ng/g
concentration at 0.5 h [13]: 0.69 ± 0.49 µM
concentration at 2 h [14]: 0.57 ± 0.57 µM
concentration at 6 h [15]: 0.08 ± 0.08 µM
concentration at 0.5 h [16]: 13 ± 10.4 µM
concentration at 2 h [17]: 24.4 ± 1.94 µM
concentration at 6 h [18]: 12.8 ± 4.61 µM
Tmax (plasma): 2 h
concentration at 0.5 h [19]: 150 ± 90 ng/g
concentration at 2 h [20]: 370 ± 160 ng/g
concentration at 6 h [21]: 90 ± 20 ng/g
concentration at 0.5 h [22]: 2590 ± 2280 ng/g
concentration at 2 h [23]: 9410 ± 2230 ng/g
concentration at 6 h [24]: 3780 ± 590 ng/g

CC1=C(/C=C/C(C)=C/C=C/C(C)=C\C(=O)O)C(C)(C)CCC1 [13cisRA, 13-cis-retinoic acid]
% Total retinoids, tumour, 0.5 h [1]: 90%
% Total retinoids, tumour, 2 h [1]: 81%
% Total retinoids, tumour, 6 h [1]: 49%
% Total retinoids, liver, 0.5 h [2]: 75%
% Total retinoids, liver, 2 h [2]: 58%
% Total retinoids, liver, 6 h [2]: 18%
% Total retinoids, plasma, 0.5 h [3]: 93%
% Total retinoids, plasma, 2 h [3]: 93%
% Total retinoids, plasma, 6 h [3]: 78%
Plasma % of total retinoids at all time points (after ATRA 100 mg kg^−1, plasma, 0.5, 2 and 6 h): < 10%
% Total retinoids, tumour, 0.5 h [4]: 2%
% Total retinoids, tumour, 2 h [4]: 3%
% Total retinoids, tumour, 6 h [4]: 3%
% Total retinoids, liver, 0.5 h [5]: 11%
% Total retinoids, liver, 2 h [5]: 5%
% Total retinoids, liver, 6 h [5]: 5%
% Total retinoids, plasma, 0.5 h [6]: 5%
% Total retinoids, plasma, 2 h [6]: 6%
% Total retinoids, plasma, 6 h [6]: 8%
concentration at 0.5 h [7]: 3770 ± 1050 ng/g
concentration at 2 h [8]: 2330 ± 110 ng/g
concentration at 6 h [9]: 980 ± 120 ng/g
concentration at 0.5 h [10]: 420 ± 300 ng/g
concentration at 2 h [11]: 400 ± 80 ng/g
concentration at 6 h [12]: 250 ± 60 ng/g
concentration at 0.5 h [13]: 14.2 ± 4.71 µM
concentration at 2 h [14]: 19.1 ± 3.26 µM
concentration at 6 h [15]: 4.69 ± 0.52 µM
concentration at 0.5 h [16]: 0.67 ± 0.55 µM
concentration at 2 h [17]: 1.55 ± 0.33 µM
concentration at 6 h [18]: 1.53 ± 0.66 µM
Tmax (plasma): 2 h
concentration at 0.5 h [19]: 2000 ± 670 ng/g
concentration at 2 h [20]: 2120 ± 570 ng/g
concentration at 6 h [21]: 280 ± 40 ng/g
concentration at 0.5 h [22]: 70 ± 70 ng/g
concentration at 2 h [23]: 280 ± 70 ng/g
concentration at 6 h [24]: 150 ± 30 ng/g
